Assay results as given in PMC12655637, “Design, Synthesis, and Mechanistic Study of Novel Ciprofloxacin/Thiazole Chalcone Hybrids as Potential Anticancer Agents” (Pharmaceuticals, 2025).

Legend:
Assay in all cases: NCI-60 screening, one-dose (10 µM) and five-dose, SRB
DU-145 = type: cell-based, human; settings: Homo sapiens; 10 μM; DU-145, Prostate Cancer; read-out: Growth percentage
SN12C = type: cell-based, human; settings: Homo sapiens, 10 μM, Renal Cancer, read-out: Growth percentage
K-562 = type: cell-based, human; settings: Homo sapiens, K562, 10 μM; K-562, Leukemia; read-out: Growth percentage
KM12 = type: cell-based, human; settings: Homo sapiens, KM12, 10 μM; KM12, Colon Cancer; read-out: Growth percentage
M14 = type: cell-based, human; settings: Homo sapiens; 10 μM; M14, Melanoma; read-out: Growth percentage
HCT-15 = type: cell-based, human; settings: Homo sapiens; 10 μM; HCT-15, Colon Cancer; read-out: Growth percentage
LOX IMVI = type: cell-based, human; settings: Homo sapiens, 10 μM, Melanoma, read-out: Growth percentage
SF-295 = type: cell-based, human; settings: Homo sapiens; 10 μM; SF-295, CNS Cancer; read-out: Growth percentage
HCT-116 = type: cell-based, human; settings: Homo sapiens; for activity at 10 µM: HCT-116, 10 μM, HCT-116, Colon Cancer, read-out: Growth percentage
RPMI-8226 = type: cell-based, human; settings: Homo sapiens; for activity at 10 µM: RPMI-8226, 10 μM, RPMI-8226, Leukemia, read-out: Growth percentage
NCI-H322M = type: cell-based, human; settings: 10 μM, Non-Small-Cell Lung Cancer
UACC-257 = type: cell-based, human; settings: Homo sapiens; 10 μM; UACC-257, Melanoma; read-out: Growth percentage
A498 = type: cell-based; settings: Homo sapiens, A498, 10 μM; A498, Renal Cancer; read-out: Growth percentage
MCF7 = type: cell-based, human; settings: Homo sapiens, MCF7, 10 μM; MCF7, Breast Cancer; read-out: Growth percentage
SW-620 = type: cell-based, human; settings: Homo sapiens; 10 μM; SW-620, Colon Cancer; read-out: Growth percentage
NCI/ADR-RES = type: cell-based, human; settings: Homo sapiens, 10 μM, Ovarian Cancer, read-out: Growth percentage
IGROV1 = type: cell-based, human; settings: 10 μM; IGROV1, Ovarian Cancer
HL-60(TB) = type: cell-based, human; settings: Homo sapiens; for activity at 10 µM: HL-60, 10 μM, HL-60(TB), Leukemia, read-out: Growth percentage
HOP-62 = type: cell-based, human; settings: Homo sapiens, HOP-62, 10 μM; HOP-62, Non-Small-Cell Lung Cancer; read-out: Growth percentage
HCC-2998 = type: cell-based, human; settings: Homo sapiens; 10 μM; HCC-2998, Colon Cancer; read-out: Growth percentage
PC-3 = type: cell-based, human; settings: Homo sapiens; 10 μM; PC-3, Prostate Cancer; read-out: Growth percentage
SK-MEL-5 = type: cell-based, human; settings: Homo sapiens; 10 μM; SK-MEL-5, Melanoma; read-out: Growth percentage
SNB-19 = type: cell-based; settings: Homo sapiens; 10 μM; SNB-19, CNS Cancer; read-out: Growth percentage
MALME-3M = type: cell-based, human; settings: 10 μM, Melanoma
SNB-75 = type: cell-based, human; settings: Homo sapiens; 10 μM; SNB-75, CNS Cancer; read-out: Growth percentage
HT29 = type: cell-based, human; settings: Homo sapiens, HT-29; 10 μM; HT29, Colon Cancer; read-out: Growth percentage
786−0 = type: cell-based, human; settings: Homo sapiens; 10 μM; 786−0, Renal Cancer; read-out: Growth percentage
HS 578T = type: cell-based, human; settings: Homo sapiens, 10 μM, Breast Cancer, read-out: Growth percentage
OVCAR-5 = type: cell-based, human; settings: 10 μM; OVCAR-5, Ovarian Cancer
MDA-MB231/ATCC = type: cell-based; settings: 10 μM; MDA-MB231/ATCC, Breast Cancer

Structure (SMILES) | activity at 10 µM (DU-145) [%] | activity at 10 µM (SN12C) [%] | activity at 10 µM (K-562) [%] | activity at 10 µM (KM12) [%] | activity at 10 µM (M14) [%] | activity at 10 µM (HCT-15) [%] | activity at 10 µM (LOX IMVI) [%] | activity at 10 µM (SF-295) [%] | activity at 10 µM (UACC-257) [%] | activity at 10 µM (A498) [%] | activity at 10 µM (SW-620) [%] | activity at 10 µM (NCI/ADR-RES) [%] | activity at 10 µM (HOP-62) [%] | activity at 10 µM (HCC-2998) [%] | activity at 10 µM (PC-3) [%] | activity at 10 µM (SK-MEL-5) [%] | activity at 10 µM (SNB-19) [%] | activity at 10 µM (SNB-75) [%] | activity at 10 µM (HT29) [%] | activity at 10 µM (786−0) [%] | also measured
CC(=O)c1sc(SCC(=O)N2CCN(c3cc4c(cc3F)c(=O)c(C(=O)O)cn4C3CC3)CC2)nc1C [Compound 4a, 7-(4-(2-((5-Acetyl-4-methylthiazol-2-yl)thio)acetyl)piperazin-1-yl)-1-cyclopropyl-6-fluoro-4-oxo-1,4-dihydroquinoline-3-carboxylic Acid] | 95.3 | 98 | 123 | 102 | 104 | 102 | 106 | 94.2 | 102 | 104 | 113 | 108 | 95.6 | 96.6 | 98.8 | 89 | 102 | 79.2 | 104 | 96.2 | activity at 10 µM (HCT-116): 113%; activity at 10 µM (RPMI-8226): 133%; Growth percentage (NCI-H322M): 105.5%; activity at 10 µM (MCF7): 94.2%; Growth percentage (IGROV1): 115.9%; activity at 10 µM (HL-60(TB)): 102%; Growth percentage (MALME-3M): 104.9%; activity at 10 µM (HS 578T): 87.4%
Cc1nc(SCC(=O)N2CCN(c3cc4c(cc3F)c(=O)c(C(=O)O)cn4C3CC3)CC2)sc1C(=O)/C=C/c1ccc(N(C)C)cc1 [Compound 4i, (E)-1-Cyclopropyl-7-(4-(2-((5-(3-(4-(dimethylamino)phenyl)acryloyl)-4-methylthiazol-2-yl)thio)acetyl)piperazin-1-yl)-6-fluoro-4-oxo-1,4-dihydroquinoline-3-carboxylic Acid] | 147 | 81.1 | 61.3 | 79.4 | 75.9 | 83.2 | 24.6 | 91.4 | 108 | 126 | 117 | 97.1 | 105 | 44.4 | 96.7 | 89.8 | 88.6 | 104 | 47.9 | 59.2 | Growth percentage (OVCAR-5): 102.5%; activity at 10 µM (HCT-116): 2.6%; activity at 10 µM (RPMI-8226): 4.7%; Growth percentage (MDA-MB231/ATCC): 73.1%; activity at 10 µM (MCF7): 17.3%; activity at 10 µM (HL-60(TB)): 89.5%; activity at 10 µM (HS 578T): 81.4%
COc1ccc(/C=C/C(=O)c2sc(SCC(=O)N3CCN(c4cc5c(cc4F)c(=O)c(C(=O)O)cn5C4CC4)CC3)nc2C)cc1 [Compound 4j, (E)-1-Cyclopropyl-6-fluoro-7-(4-(2-((5-(3-(4-methoxyphenyl)acryloyl)-4-methylthiazol-2-yl)thio)acetyl)piperazin-1-yl)-4-oxo-1,4-dihydroquinoline-3-carboxylic Acid] | 113 | 96.2 | 98.3 | 112 | 109 | 104 | 97.9 | 101 | 114 | 117 | 123 | 109 | 98.3 | 100 | 107 | 99.7 | 103 | 86.2 | 108 | 88.6 | Growth percentage (OVCAR-5): 110.0%; activity at 10 µM (HCT-116): 103%; activity at 10 µM (RPMI-8226): 106%; Growth percentage (MDA-MB231/ATCC): 94.8%; activity at 10 µM (MCF7): 93.3%; activity at 10 µM (HL-60(TB)): 101%; activity at 10 µM (HS 578T): 96.4%
COc1cccc(/C=C/C(=O)c2sc(SCC(=O)N3CCN(c4cc5c(cc4F)c(=O)c(C(=O)O)cn5C4CC4)CC3)nc2C)c1OC [Compound 4k, (E)-1-Cyclopropyl-7-(4-(2-((5-(3-(2,3-dimethoxyphenyl)acryloyl)-4-methylthiazol-2-yl)thio)acetyl)piperazin-1-yl)-6-fluoro-4-oxo-1,4-dihydroquinoline-3-carboxylic Acid] | 98 | 87.5 | 133 | 4.4 | 75.1 | 64.5 | 104 | 97.4 | 102 | 90.9 | 90.7 | 112 | -20.2 | 76.8 | 93.5 | 83 | 87.2 | 100 | 82.6 | 96.9 | IC50 (HCT-116; colon HCT-116): 340 nM; IC50 (RPMI-8226; RPMI-8226, RPMI-8226): 340 nM; Growth percentage (NCI-H322M): 114.8%; Growth percentage (IGROV1): 101.3%; IC50 (HL-60(TB); HL-60, leukemia HL-60): 2950 nM; Growth percentage (MALME-3M): 115.2%; activity at 10 µM (HS 578T): 92.8%
